How the values were obtained:
[1] = tested on: HL-60; assay: Antiproliferative activity against human HL60 cells after 48 hrs by MTT assay; assay type: functional, cell-based; settings: HL-60, 48 h
[2] = tested on: MCF7; assay: Antiproliferative activity against human MCF7 cells after 48 hrs by MTT assay; assay type: functional, cell-based; settings: MCF7, 48 h
[3] = tested on: Vero; assay: Cytotoxicity against African green monkey Vero cells after 48 hrs by MTT assay; assay type: cell-based; settings: Chlorocebus sabaeus
[4] = tested on: HCT-116; assay: Antiproliferative activity against human HCT116 cells after 48 hrs by MTT assay; assay type: functional, cell-based; settings: HCT-116, 48 h
[5] = tested on: MDA-MB-231; assay: Antiproliferative activity against human MDA-MB-231 cells after 48 hrs by MTT assay; assay type: functional, cell-based; settings: MDA-MB-231, 48 h
[6] = tested on: Jurkat; assay: Antiproliferative activity against human Jurkat T cells after 48 hrs by MTT assay; assay type: functional, cell-based

Row | SMILES | IC50 [1] | IC50 [2] | IC50 [3] | IC50 [4] | IC50 [5] | IC50 [6]
1 | CC(C)(C)OC(=O)N[C@H](CO)COc1ccc([N+](=O)[O-])cc1 | > 50 µM | > 50 µM | > 100 µM | > 50 µM | > 50 µM | –
2 | CC(C)(C)C(=O)N1[C@@H](COc2ccc([N+](=O)[O-])cc2)COC1(C)C | > 50 µM | > 50 µM | > 100 µM | > 50 µM | > 50 µM | > 50 µM
3 | CC(C)(C)CC(=O)N1[C@@H](COc2ccc([N+](=O)[O-])cc2)COC1(C)C | > 50 µM | > 50 µM | > 100 µM | > 50 µM | > 50 µM | > 50 µM
4 | CN1CCN(C(=O)c2ccc(OC[C@H]3COC(C)(C)N3C(=O)OC(C)(C)C)cc2)CC1 | > 50 µM | > 50 µM | – | > 50 µM | > 50 µM | > 50 µM
